# pIC50: −log10 of the molar value. Counter-ions that a name gives are not always drawn.
# Tests used:
# rat hearts = settings: isolated rat hearts; cited from earlier work
# [1] = molecular target: T1, Na^+/H^+ exchanger of rabbit erythrocytes (Oryctolagus cuniculus, UniProt P23791); test: Inhibition of the Na+/H+ exchanger of rabbit erythrocytes (amiloride-sensitive sodium influx, flame photometry); assay type: cell-based; settings: pH 7.4, 37° C., hyperosmolar salt-sucrose medium
# T1 construct: determine the Na^+ influx into the erythrocytes via Na^+/H^+ exchange by flame photometry; endogenous in cells; host or cells: erythrocytes in whole blood of cholesterol-fed White New Zealand rabbits
# T1 sequence (P23791 whole entry): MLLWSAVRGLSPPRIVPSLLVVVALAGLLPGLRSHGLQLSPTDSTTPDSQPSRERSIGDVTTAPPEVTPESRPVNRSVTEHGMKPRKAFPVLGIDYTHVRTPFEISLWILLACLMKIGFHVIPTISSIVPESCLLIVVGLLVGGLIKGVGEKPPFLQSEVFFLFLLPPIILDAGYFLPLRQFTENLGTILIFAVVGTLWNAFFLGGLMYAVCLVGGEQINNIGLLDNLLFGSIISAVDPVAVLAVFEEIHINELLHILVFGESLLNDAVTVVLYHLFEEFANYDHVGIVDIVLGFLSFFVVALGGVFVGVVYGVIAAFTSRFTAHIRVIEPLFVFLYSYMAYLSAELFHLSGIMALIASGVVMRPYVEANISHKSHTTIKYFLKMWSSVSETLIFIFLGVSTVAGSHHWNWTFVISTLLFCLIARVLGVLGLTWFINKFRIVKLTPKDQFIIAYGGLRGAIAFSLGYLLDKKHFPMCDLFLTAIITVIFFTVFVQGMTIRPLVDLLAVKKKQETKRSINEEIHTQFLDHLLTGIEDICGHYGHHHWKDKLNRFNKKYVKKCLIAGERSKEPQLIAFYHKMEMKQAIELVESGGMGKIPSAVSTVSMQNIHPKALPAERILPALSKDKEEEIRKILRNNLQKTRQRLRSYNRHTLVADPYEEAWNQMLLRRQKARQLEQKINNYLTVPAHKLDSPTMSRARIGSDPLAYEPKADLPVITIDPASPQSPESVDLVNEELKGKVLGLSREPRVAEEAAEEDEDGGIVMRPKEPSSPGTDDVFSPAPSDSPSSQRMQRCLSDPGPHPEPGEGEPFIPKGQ
# From the text: Inhibition of the Na^+/H^+ exchanger of rabbit erythrocytes:
# White New Zealand rabbits (Ivanovas) received a standard diet containing 2% cholesterol for six weeks in order to activate Na^+/H^+ exchange and thus to be able to determine the Na^+ influx into the erythrocytes via Na^+/H^+ exchange by flame photometry. The blood was taken from the auricular arteries and rendered uncoagulable by means of 25 lU/ml of potassium heparin. A part of each sample was used for the duplicate determination of the hematocrit by centrifugation. Aliquots of 100 μl in each case were used to measure the Na^+ starting content of the erythrocytes.
# In order to determine the amiloride-sensitive sodium influx, 100 μl of each blood sample were incubated at pH 7.4 and 37° C. in 5 ml in each case of a hyperosmolar salt-sucrose medium (mmol/l: 140 NaCl, 3 KCl, 150 sucrose, 0.1 ouabain, 20 trishydroxymethylaminomethane). The erythrocytes were then washed three times with ice-cold MgCl2-ouabain solution (mmol/l: 112 MgCl2, 0.1 ouabain) and hemolyzed in 2.0 ml of distilled water. The intracellular sodium content was determined by flame photometry.
# The net Na^+ influx was calculated from the difference between sodium starting values and the sodium content of the erythrocytes after incubation. The amiloride-inhibitable sodium influx ensued from the difference in the sodium content of the erythrocytes after incubation with and without amiloride 3×10^−4 mol/l. The sodium influx was also determined in this manner in the case of the compounds according to the invention.
Structure (SMILES),melting point,pIC50 [1],other results
"CCN(c1nc(N)c(C(=O)NC(=N)N)nc1Cl)C(C)C [ethylisopropylamiloride, Ethylisopropylamiloride]",–,–,potency relative to amiloride in the ventricular fibrillation model (rat hearts): even more potent than amiloride
"Cl.NC(N)=NC(=O)c1ccc(F)c2ccccc12 [Example 1, 4-Fluoro-1-naphthoylguanidine Hydrochloride]",245 °C,5.70 to 6.00,–
"CC(C)Oc1ccc2ccccc2c1C(=O)NC(=N)N [Example 18, 2-Isopropyloxy-1-naphthoylguanidine Hydrochloride]",–,5.70,–
"N=C(N)NC(=O)c1nc(Cl)c(N)nc1N [amiloride, Amiloride]",–,–,suppression of artificially induced ventricular fibrillation (rat hearts): suppressed completely
"COc1ccc2ccccc2c1C(=O)NC(=N)N [Example 8, 2-Methoxy-1-naphthoylguanidine Hydrochloride]",–,6.30,–
"CCCCOc1ccc2ccccc2c1C(=O)NC(=N)N [Example 14, 2-Butyloxy-1-naphthoylguanidine Hydrochloride]",–,6.00,–
"N=C(N)NC(=O)c1cccc2ccccc12 [Example 6, 1-Naphthoylguanidine Hydrochloride]",–,5.00,–

# More lines, main results first:
melting point,Structure (SMILES),pIC50 [1],other results
235 to 236 °C,"COc1ccc2c(C(=O)N=C(N)N)cccc2c1 (as salt: hydrochloride) [Example 4, 6-Methoxy-1-naphthoylguanidine Hydrochloride]",–,–
270 °C (dec.),"NC(N)=NC(=O)c1ccc(C(=O)N=C(N)N)c2ccccc12 [Example 23, Naphthaline-1,4-dicarboxylic Acid Diguanidide]",–,–
205 to 210 °C,"NC(N)=NC(=O)c1c(OCc2ccc(CN3CCCCC3)cc2)ccc2ccccc12 [Example 10, 2-[4-(1-Piperidinomethyl)benzyloxy]-1-naphthoylguanidine]",–,–
> 260 °C,"COc1ccc2c(C(=O)N=C(N)N)cccc2c1C(F)(F)F (as salt: hydrochloride) [Example 3, 6-Methoxy-5-trifluoromethyl-1-naphthoyl-guanidine Hydrochloride]",–,–
198 to 202 °C,"NC(N)=NC(=O)c1c(OCc2ccc(Br)cc2)ccc2ccccc12 (as salt: hydrochloride) (hydrate or solvate) [Example 9, 2-(4-Bromobenzyloxy)naphthoylguanidine Hydrochloride Hemihydrate]",–,–
